Assays:
[1] = system: MV4-11 cells (FLT3-ITD+/+); test: Inhibition of cell proliferation by MTT experiment, MV4-11; type: cell-based, human; conditions: Homo sapiens, MV4-11; MTT, 72 h; read-out: IC50 value on cell proliferation inhibition, MV4-11 FLT3-ITD+/+
In short: (§1)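 MTT assay in MV4-11, MOLM-13 (FLT3-ITD) and SET-2 (JAK2 V617F) cells at 10,000–15,000 cells/well in IMDM with 10% FBS. Cells are exposed to compound for 72 h at 37 °C, then to MTT for 1–3 h. IC50 is fitted from inhibition rates across concentrations.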

[2] = system: MOLM-13 cells (FLT3-ITD-/+); test: Inhibition of cell proliferation by MTT experiment, MOLM-13; type: cell-based, human; conditions: Homo sapiens, MOLM-13; MTT, 72 h; read-out: IC50 value on cell proliferation inhibition, MOLM-13 FLT3-ITD-/+
In short: as §1

SET-2 cells (JAK2 V617F) = test: Inhibition of cell proliferation by MTT experiment, SET-2; type: cell-based; conditions: Homo sapiens, SET-2; MTT, 72 h; read-out: IC50 value on cell proliferation inhibition, SET-2 (V617F)
In short: as §1

FLT3 = target: T1, FLT3 (Homo sapiens, UniProt P36888); test: In vitro kinase activity experiment, FLT3; type: biochemical; conditions: 40 min; inhibition rate of enzyme at 500 nM; measured by Eurofins; read-out: Kinase activity @ 500 nM (%) FLT3
T1 construct: purchased Eurofins
T1 sequence (P36888 27-993): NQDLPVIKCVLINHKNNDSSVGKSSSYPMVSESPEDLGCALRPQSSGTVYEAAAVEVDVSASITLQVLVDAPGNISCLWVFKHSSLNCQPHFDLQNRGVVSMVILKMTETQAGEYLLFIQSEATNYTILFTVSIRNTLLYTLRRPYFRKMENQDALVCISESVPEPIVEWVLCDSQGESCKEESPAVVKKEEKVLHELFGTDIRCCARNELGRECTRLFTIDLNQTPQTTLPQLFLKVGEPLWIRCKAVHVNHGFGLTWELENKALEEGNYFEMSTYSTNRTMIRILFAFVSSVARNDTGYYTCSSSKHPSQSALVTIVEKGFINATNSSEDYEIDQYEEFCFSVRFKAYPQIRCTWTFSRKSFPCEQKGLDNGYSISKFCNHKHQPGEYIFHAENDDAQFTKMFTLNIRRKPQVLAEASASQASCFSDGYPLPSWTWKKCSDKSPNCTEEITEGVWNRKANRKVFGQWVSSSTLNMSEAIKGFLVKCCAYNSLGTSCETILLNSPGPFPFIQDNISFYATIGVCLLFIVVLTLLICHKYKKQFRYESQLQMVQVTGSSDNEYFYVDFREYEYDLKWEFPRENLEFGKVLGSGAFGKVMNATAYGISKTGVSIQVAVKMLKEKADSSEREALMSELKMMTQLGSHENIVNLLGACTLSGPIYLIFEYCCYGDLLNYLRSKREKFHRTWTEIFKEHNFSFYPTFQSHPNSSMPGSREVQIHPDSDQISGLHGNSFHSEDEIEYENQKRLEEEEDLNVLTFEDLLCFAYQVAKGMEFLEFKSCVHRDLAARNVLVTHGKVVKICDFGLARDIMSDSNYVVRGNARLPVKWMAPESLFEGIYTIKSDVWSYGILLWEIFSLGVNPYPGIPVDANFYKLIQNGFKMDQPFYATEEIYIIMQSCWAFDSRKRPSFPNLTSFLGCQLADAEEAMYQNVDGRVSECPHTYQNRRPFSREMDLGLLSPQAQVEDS
In short: (§2)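 Radiometric filter-binding assay: kinase, its substrate and compound in 8 mM MOPS pH 7.0, 0.2 mM EDTA, 10 mM MnCl2, with 10 mM magnesium acetate and γ33P-ATP; MgATP started the reaction, 40 min at room temperature. Stopped with 3% phosphate, spotted on Filtermat A, washed, scintillation counted.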

JAK2 = target: T2, JAK2 (Homo sapiens, UniProt O60674); test: In vitro kinase activity experiment, JAK2; type: biochemical; conditions: inhibition rate of enzyme at 500 nM; measured by Eurofins
T2 construct: purchased Eurofins
T2 sequence (O60674 whole entry): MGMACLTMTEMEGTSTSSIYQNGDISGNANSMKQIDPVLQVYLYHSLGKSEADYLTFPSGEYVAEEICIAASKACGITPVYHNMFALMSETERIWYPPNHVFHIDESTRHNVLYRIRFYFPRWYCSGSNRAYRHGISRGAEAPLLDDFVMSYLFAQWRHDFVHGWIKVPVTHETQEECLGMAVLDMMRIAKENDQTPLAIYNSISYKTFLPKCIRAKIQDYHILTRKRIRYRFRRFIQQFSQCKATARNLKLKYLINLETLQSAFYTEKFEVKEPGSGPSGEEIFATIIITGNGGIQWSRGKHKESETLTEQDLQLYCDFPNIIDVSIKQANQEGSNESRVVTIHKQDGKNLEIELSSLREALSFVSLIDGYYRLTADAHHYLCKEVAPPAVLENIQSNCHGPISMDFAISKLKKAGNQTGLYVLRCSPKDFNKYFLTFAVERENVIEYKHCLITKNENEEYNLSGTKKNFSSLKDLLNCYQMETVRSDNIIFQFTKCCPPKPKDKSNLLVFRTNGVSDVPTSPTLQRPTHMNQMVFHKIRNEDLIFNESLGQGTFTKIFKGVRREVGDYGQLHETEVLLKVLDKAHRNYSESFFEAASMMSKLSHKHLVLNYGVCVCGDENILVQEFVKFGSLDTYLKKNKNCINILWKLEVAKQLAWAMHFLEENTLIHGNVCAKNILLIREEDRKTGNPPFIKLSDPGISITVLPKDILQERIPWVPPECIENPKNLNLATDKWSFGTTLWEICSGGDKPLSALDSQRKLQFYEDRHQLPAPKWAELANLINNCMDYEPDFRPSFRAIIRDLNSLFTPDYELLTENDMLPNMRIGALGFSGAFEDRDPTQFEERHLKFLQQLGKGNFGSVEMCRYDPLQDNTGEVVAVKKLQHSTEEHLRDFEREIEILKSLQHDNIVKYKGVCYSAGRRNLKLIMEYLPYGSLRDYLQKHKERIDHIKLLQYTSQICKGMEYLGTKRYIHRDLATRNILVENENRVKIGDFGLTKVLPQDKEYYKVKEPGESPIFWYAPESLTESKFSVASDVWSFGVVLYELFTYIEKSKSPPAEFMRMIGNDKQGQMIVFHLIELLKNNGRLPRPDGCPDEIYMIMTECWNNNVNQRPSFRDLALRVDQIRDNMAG
In short: as §2

Row | Structure (SMILES) | IC50 [1] [nM] | IC50 [2] [nM] | IC50 (SET-2 cells (JAK2 V617F)) [nM] | inhibition at 0.5 µM (FLT3) [%] | Kinase activity @ 500 nM (%) JAK2 (JAK2) [%]
1 | CCCN1CC2(CCN(c3ccc(Nc4ncc(C)c(-c5cnn(C(C)C)c5)n4)cc3F)CC2)C1 [CLJ-72, N-(3-fluoro-4-(2,7-diazaspiro [3.5]nonane-2-propyl-7-yl)phenyl)-4-(1-isopropyl-1H-pyrazole-4-yl)-5-methylpyrimidine-2-amine] | 10 to 100 | 10 to 100 | 100 to 1000 | 92 | 92
2 | CCCCN1CC2(CCN(c3ccc(Nc4ncc(C)c(-c5cnn(C(C)C)c5)n4)cc3F)CC2)C1 [CLJ-73, N-(3-fluoro-4-(2,7-diazaspiro [3.5]nonane-2-butyl-7-yl)phenyl)-4-(1-isopropyl-1H-pyrazole-4-yl)-5-methylpyrimidine-2-amine] | 100 to 1000 | 100 to 1000 | 100 to 1000 | 97 | 91
3 | CCCCCCN1CC2(CCN(c3ccc(Nc4ncc(C)c(-c5cnn(C(C)C)c5)n4)cc3F)CC2)C1 [CLJ-74, N-(3-fluoro-4-(2,7-diazaspiro [3.5]nonane-2-hexyl-7-yl)phenyl)-4-(1-isopropyl-1H-pyrazole-4-yl)-5-methylpyrimidine-2-amine] | 10 to 100 | 10 to 100 | 10 to 100 | 97 | 98
4 | Cc1cnc(Nc2ccc(N3CCC4(CC3)CN(C(C)C)C4)c(F)c2)nc1-c1cnn(C(C)C)c1 [CLJ-75, N-(3-fluoro-4-(2,7-diazaspiro [3.5]nonane-2-isopropyl-7-yl)phenyl)-4-(1-isopropyl-1H-pyrazole-4-yl)-5-methylpyrimidine-2-amine] | 1 to 10 | 1 to 10 | 10 to 100 | 99 | 96
5 | Cc1cnc(Nc2ccc(N3CCC4(CC3)CN(C3CCCC3)C4)c(F)c2)nc1-c1cnn(C(C)C)c1 [CLJ-76, N-(3-fluoro-4-(2,7-diazaspiro [3.5]nonane-2-cyclopentyl-7-yl)phenyl)-4-(1-isopropyl-1H-pyrazole-4-yl)-5-methylpyrimidine-2-amine] | 100 to 1000 | 100 to 1000 | 100 to 1000 | 67 | 59
6 | C=CC(=O)CCN1CC2(CCN(c3ccc(Nc4ncc(C)c(-c5cnn(C(C)C)c5)n4)cc3F)CC2)C1 [CLJ-77, 1-(7-(2-fluoro-4-((4-(1-isopropyl-1H-pyrazole-4-yl)-5-methylpyrimidine-2-yl)-amino)-phenyl)-2,7-diazaspiro [3.5]nonane-2-yl)-4-pentenamide] | 100 to 1000 | 100 to 1000 | 100 to 1000 | 55 | 54
7 | Cc1cnc(Nc2ccc(CNC(=O)/C=C/CN(C)C)cc2)nc1-c1cnn(C(C)C)c1 [CLJ-79, (E)-N-(4-((4-(1-isopropyl-1H-pyrazole-4-yl)-5-methylpyrimidine-2-yl)amino)benzyl)-4-dimethylamino-2-butenamide] | 100 to 1000 | 100 to 1000 | 100 to 1000 | 45 | 44
8 | Cc1cnc(Nc2ccc(CCNC(=O)/C=C/CN(C)C)cc2)nc1-c1cnn(C(C)C)c1 [CLJ-80, (E)-N-(4-((4-(1-isopropyl-1H-pyrazole-4-yl)-5-methylpyrimidine-2-yl)amino)phenylethyl)-4-dimethylamino-2-butenamide] | 100 to 1000 | > 1000 | > 1000 | 23 | 34
9 | Cc1cnc(Nc2ccc(CNC(=O)/C=C/C(=O)c3ccccc3)cc2)nc1-c1cnn(C(C)C)c1 [CLJ-81, N-(4-((4-(1-isopropyl-1H-pyrazole-4-yl)-5-methylpyrimidine-2-yl)amino)benzyl)-3-benzoyl acrylamide] | > 1000 | > 1000 | > 1000 | 22 | 34
10 | Cc1cnc(Nc2ccc(CCNC(=O)/C=C/C(=O)c3ccccc3)cc2)nc1-c1cnn(C(C)C)c1 [CLJ-82, N-(4-((4-(1-isopropyl-1H-pyrazole-4-yl)-5-methylpyrimidine-2-yl)amino)phenethyl)-3-benzoyl acrylamide] | > 1000 | > 1000 | > 1000 | 12 | 20
11 | Cc1cnc(Nc2ccc(CNC(=O)CCCN(C)C)cc2)nc1-c1cnn(C(C)C)c1 [CLJ-83, N-(4-((4-(1-isopropyl-1H-pyrazole-4-yl)-5-methylpyrimidine-2-yl)amino)benzyl)-4-dimethylaminobutyramide] | 10 to 100 | 10 to 100 | 100 to 1000 | 89 | 88
12 | Cc1cnc(Nc2ccc(CCNC(=O)CCCN(C)C)cc2)nc1-c1cnn(C(C)C)c1 [CLJ-84, N-(4-((4-(1-isopropyl-1H-pyrazole-4-yl)-5-methylpyrimidine-2-yl)amino)phenethyl)-4-dimethylaminobutyramide] | 100 to 1000 | 100 to 1000 | 100 to 1000 | 78 | 79
13 | Cc1cnc(Nc2ccc(CNC(=O)CCl)cc2)nc1-c1cnn(C(C)C)c1 [CLJ-85, N-(4-((4-(1-isopropyl-1H-pyrazole-4-yl)-5-methylpyrimidine-2-yl)amino)benzyl)-2-chloroacetamide] | 100 to 1000 | > 1000 | > 1000 | 67 | 56
14 | Cc1cnc(Nc2ccc(CCNC(=O)CCl)cc2)nc1-c1cnn(C(C)C)c1 [CLJ-86, N-(4-((4-(1-isopropyl-1H-pyrazole-4-yl)-5-methylpyrimidine-2-yl)amino)phenethyl)-2-chloroacetamide] | 100 to 1000 | > 1000 | > 1000 | 45 | 37
15 | Cc1cnc(Nc2ccc(CNC(=O)CCCl)cc2)nc1-c1cnn(C(C)C)c1 [CLJ-87, N-(4-((4-(1-isopropyl-1H-pyrazole-4-yl)-5-methylpyrimidine-2-yl)amino)benzyl)-3-chloropropanamide] | > 1000 | > 1000 | > 1000 | 45 | 39
16 | Cc1cnc(Nc2ccc(CCNC(=O)CCCl)cc2)nc1-c1cnn(C(C)C)c1 [CLJ-88, N-(4-((4-(1-isopropyl-1H-pyrazole-4-yl)-5-methylpyrimidine-2-yl)amino)phenethyl)-3-chloropropanamide] | > 1000 | > 1000 | > 1000 | 32 | 20
17 | C=CS(=O)(=O)NCc1ccc(Nc2ncc(C)c(-c3cnn(C(C)C)c3)n2)cc1 [CLJ-89] | 100 to 1000 | > 1000 | 10 to 100 | 47 | 99
18 | C=CS(=O)(=O)NCCc1ccc(Nc2ncc(C)c(-c3cnn(C(C)C)c3)n2)cc1 [CLJ-90] | 10 to 100 | 10 to 100 | 100 to 1000 | 95 | 97
19 | CCS(=O)(=O)c1nn(C(C)C)cc1-c1nc(Nc2ccc(N3CCC(N(C)CCO)CC3)c(F)c2)ncc1C [CLJ-92, 5-methyl-N-(3-fluoro-4-(4-N-hydroxyethyl-4-N-methylaminopiperidine-1-yl)phenyl)-4-(1-isopropyl-3-ethylsulfonyl-1H-pyrazole-4-yl) pyrimidine-2-amine] | 10 to 100 | 10 to 100 | 100 to 1000 | 98 | 104
